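Exposure lasted 48 hours, with cells grown in 96-well plates and compounds tested at five concentrations. Abbreviation: GI50, concentration required for 50% inhibition of growth. TGI is the concentration that stops growth completely.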
What was measured:
Assay in all cases: inhibition of tumour cell growth, NCI panel, 48 h
UO-31 renal = system: UO-31 renal
SW-620 colon = system: SW-620 colon
ACHN renal = system: ACHN renal
HOP-62 NSCLC = system: HOP-62 NSCLC
NCI/ADR-RES ovarian = system: NCI/ADR-RES ovarian
TK-10 renal = system: TK-10 renal
MALME-3M melanoma = system: MALME-3M melanoma
OVCAR-8 ovarian = system: OVCAR-8 ovarian
HOP-92 NSCLC = system: HOP-92 NSCLC
K-562 leukemia = system: K-562 leukemia

Structure (SMILES) | GI50 (UO-31 renal) [µM] | TGI (UO-31 renal) [µM] | GI50 (SW-620 colon) [µM] | TGI (SW-620 colon) [µM] | GI50 (ACHN renal) [µM] | TGI (ACHN renal) [µM] | GI50 (HOP-62 NSCLC) [µM] | TGI (HOP-62 NSCLC) [µM] | GI50 (NCI/ADR-RES ovarian) [µM] | TGI (NCI/ADR-RES ovarian) [µM] | GI50 (TK-10 renal) [µM] | TGI (TK-10 renal) [µM] | GI50 (MALME-3M melanoma) [µM] | TGI (MALME-3M melanoma) [µM] | GI50 (OVCAR-8 ovarian) [µM] | TGI (OVCAR-8 ovarian) [µM] | GI50 (HOP-92 NSCLC) [µM] | TGI (HOP-92 NSCLC) [µM] | GI50 (K-562 leukemia) [µM] | TGI (K-562 leukemia) [µM]
CCCCCCCCCCCCOC1C(C(CC(=O)NCCN2CCCC2)NS(=O)(=O)c2cc(Cl)cc(Cl)c2)OC2OC(C)(C)OC21 (stereo not given) | 1.9 | 3.44 | 1.98 | 3.63 | 1.9 | 3.37 | 1.74 | 3.39 | 2.04 | 4.08 | 2 | 3.82 | 1.89 | 3.62 | 2.21 | 4.88 | 1.49 | 3 | 2.34 | 4.85
C[C@H]1CCC/C=C/[C@@H]2C[C@H](O)C[C@H]2[C@H](O)[C@@H](SCC(O)CO)CC(=O)O1 (stereo not given in full) | 21.4 | 71 | 30.9 | > 100 | 25.7 | 92.8 | 33.2 | > 100 | > 100 | > 100 | 48 | > 100 | > 100 | > 100 | > 100 | > 100 | 37.7 | > 100 | 40.3 | > 100
O=C1C(Cl)=C(Nc2ccccc2O)C(=O)N1Cc1ccccc1 | 15.9 | 29.3 |  |  | 20.6 | 55.8 | 18.5 | 32.6 | 24.6 | 57.1 | 28.7 | 62.1 | 22.8 | 40.4 | 18.3 | 34 | 21.4 | 48.3 | 15.5 | 33.6
O=C(Nc1ccc(Cl)c(Cl)c1)Nc1ccccc1O | 2.48 | 18.4 | 5.42 | 19.5 | 3.9 | 51.5 | 10.6 | 24.1 | 3.59 | 28.5 | 6.41 | 28 | 4.82 | 20.3 | 5.1 | 32.4 | 6.46 | 27.3 | 3.4 | 76.8
Cc1cc(C)n(-c2nnc3n2N=C(c2ccc(-c4ccccc4)cc2)CS3)n1 | 3.38 | > 100 | 3.41 | > 100 | 3.98 | > 100 | 6.17 | > 100 | 3.09 | > 100 | 2.47 | 42.2 | 3.44 | 17 | 3.51 | > 100 | 1.38 | 5.13 | 3.58 | > 100
Nc1ccc2nc3n(c2c1)C(=O)c1ccccc1-3 |  | > 100 |  | > 100 |  | > 100 |  |  |  | > 100 |  | > 100 |  | > 100 |  | > 100 |  | > 100 |  | > 100
O=C1CSC(c2ccc(-c3nc4ccccc4s3)cc2)=N1 | 74.8 | > 100 | 50.5 | > 100 | 55.6 | > 100 | 43.7 | > 100 | 50.5 | > 100 | 17.5 | 65.1 |  |  | 11.1 | > 100 | > 100 | > 100 | 16.7 | 50.4
C=C1CC[C@@H](C(C)C)C[C@@H]2[C@H]([C@H](O)C[C@]2(C)O)[C@@]2(C)CC[C@@H]1O2 | 17.3 | 31.1 | 20.6 | 39.9 | 16.5 | 30 | 17.7 | 31.6 | 16.7 | 33.2 | 21.7 | 43.7 | 14.1 | 28.6 | 21.4 | 46.4 | 6.84 | 20.7 | 15.8 | 29.2
Clc1ccc(N=CNc2ccc(-c3nc4ccccc4o3)cc2)cc1 | 40.6 | > 100 | 2.9 | 8.16 | 24.4 | > 100 | > 100 | > 100 | 7.03 | 48.1 | 21 | 54.2 |  |  | 21.1 | 40.9 | 57.1 | > 100 | 32.6 | > 100
O=C(OCc1ccc2c(Cl)cc(Cl)c(O)c2n1)N1CCN(C(=O)c2cc3cc(F)ccc3[nH]2)CC1 | 2.59 | > 100 | 0.83 | > 100 | 0.611 | > 100 | 1.31 | > 100 | 0.331 |  | 99.5 | > 100 | 3.71 | > 100 | 0.551 | > 100 | 3.1 | > 100 | 0.825 | > 100
CCN(CC)CCNC(=O)c1ccc(C)c(OCc2ccccc2)c1[N+](=O)[O-] |  | 50.5 |  | 44 |  | > 89.6 |  | > 75.4 |  | > 62.8 |  | 98.1 |  | 31.2 |  | > 100 |  | 83.2 |  | 49.2
COc1ccc2c(Oc3ccc(NC(=O)c4c(C)n(CC(C)(C)O)n(-c5ccccc5)c4=O)nc3)ccnc2c1 | 4.41 | > 100 | 34.2 | > 100 | 5.02 | > 100 | 27.8 | > 100 | 20.5 | > 100 | 5.92 | 19.8 | 9.06 | 51.1 | 9.48 | > 100 | 1.79 | 16.7 | 2.77 | 20
Cn1cc(-c2ccc(-c3cncc(Cl)c3N3CCC4(CCNC4=O)CC3)cc2)cn1 | 29 | > 100 | 47.7 | > 100 | 23 | > 100 | 39.6 | > 100 | 45.3 | > 100 |  |  | 66.6 | > 100 | 29.4 | > 100 | > 100 | > 100 | 26.9 | > 100
